Measurements published in patent US20020068712A1, “Use of decreasing levels of functional transient receptor potential gene product” (priority 1999, published 2002).

Assays:
Type in all cases: cell-based, rat
[1] = test system: RPAECs; experiment: Whole cell patch clamp determination of store-operated Ca2+ entry
Description: Whole cell patch clamp was utilized to measure transmembrane ion flux in thapsigargin-stimulated RPAECs. Confluent RPAECs were enzyme dispersed, seeded onto 35-mm plastic culture dishes, and then allowed to reattach for at least 24 h before patch-clamp experiments were performed. […] These cells were chosen for study because their morphology was consistent with RPAECs from a confluent monolayer. The extracellular and pipette solutions were composed of the following (in mM): 1) extracellular: 110 tetraethylammonium aspartate, 10 calcium aspartate, 10 HEPES, and 0.5 3,4-diaminopyridine; and 2) pipette: 130 N-mehyl-D-glucamine, 1.15 EGTA, 10 HEPES, 1 Ca(OH)2, and 2 Mg^2+-ATP. Both solutions were adjusted to 290-300 mosM with sucrose and pH 7.4 with methane sulfonic acid, and [Ca^2+]i was estimated as 100 nM (10). The pipette resistance was 2-5 MΩ. Data were obtained with a HEKA EPC9 amplifier (Lambrecht/Pfaltz) and sampled on-line with Pulse+Pulsefit software (HEKA). All recordings were made at room temperature (22° C.). To generate current-voltage (I-V) relationships, voltage pulses were applied from −100 to +100 mV in 20-mV increments, with a 200-ms duration during each voltage step and a 2-s interval between steps. The holding potential between each step was 0 mV.

[2] = test system: RPAECs; experiment: Assessment of endothelial cell shape change (scanning electron micrographs)
Description: were seeded onto 35-mm plastic culture dishes and grown to confluence. Growth medium was replaced with experimental buffer (same as that used for [Ca^2+]i measurements but without fura 2), and the cells were subjected to one of the following protocols: 1) vehicle control (5 min) in 2 mM or 100 nM extracellular Ca^2+ concentration ([Ca^2+]o); 2) thapsigargin (1 μM, 5 min) in 2 mM or 100 nM ([Ca^2+]o; or 3) thapsigargin in 100 nM [Ca^2+]o+readdition of 2 mM CaCl2 (5 min). At the end of each experiment, the cell monolayers were fixed in 3% gluteraldehyde-PBS for 2 h. The cells were washed two times with 0.1 M cacodylate buffer, dehydrated by immersion in a series of ethanol dilutions, critical point dried in CO2, and covered with 20 nm of gold. Specimens were viewed at […] at a 15° inclination. Scanning electron micrographs were taken of representative areas in the monolayer by a pathologist blinded to the experimental protocols.

[3] = test system: RPAECs; experiment: Assessment of filamentous actin arrangement (confocal microscopy)
Description: Experiments to determine filamentous actin (F-actin) arrangement were conducted in parallel with those assessing endothelial cell shape. […] were seeded onto glass coverslips, and F-actin was stained with Oregon Green-phalloidin (Molecular Probes) with a standard fixation and staining protocol. Cells were analyzed by confocal microscopy (excitation at 496 nm and emmision at 520 nm). Micrographs were taken at multiple cellular depths (0.3-μm steps, 13-15 sections) and were used to deduce the microfilamentous cytoskeleton configurations of the cells.

[4] = test system: RPAECs; experiment: [Ca2+]i measurement by fura 2 fluorescence
Description: RPAECs were seeded onto chambered glass coverslips (Nalge Nunc, Naperville, Ill.) and grown to confluence. [Ca^2+]i was estimated with the Ca^2+-sensitive fluorophore fura 2-AM (Molecular Probes, Eugene, Oreg.) according to methods previously described by our laboratory (38). Because this is the first report of [Ca^2+]i measurements in cultured RPAECS, a summary of the technique will be presented. RPAECs were washed with 2 ml of a HEPES (Fisher Scientific, Atlanta, Ga.)-buffered physiological salt solution (PSS) containing (in g/l) 6.9 NaCl, 0.35 KCl, 0.16 KH2PO4, 0.141 MgSO4, 2.0 D-glucose, and 2.1 NaHCO3. The loading solution (1 ml) consisted of PSS plus 3 μM fura 2-AM, 3 μl of a 10% pluronic acid solution, and 2 mM or 100 nM CaCl2. RPAECs were fura loaded for 20 min in a CO2 incubator at 37° C. After this loading period, the cells were again washed with PSS (2 ml) and treated with deesterification medium (PSS+2 mM or 100 nM CaCl2) for an additional 20 min. After deesterification, [Ca^2+]i was assessed with an Olympus 1×70 inverted microscope at ×400 with a xenon arc lamp photomultiplier system (Photon Technologies, Monmouth Junction, N.J.), and data were acquired and analyzed with PTI Felix software. Epifluorescence (signal averaged) was measured from three to four endothelial cells in a confluent monolayer, and the changes in [Ca^2+]i are expressed as the fluorescence ratio of the Ca^2+-bound (340-nm) to Ca^2+-unbound (380-nm) excitation wavelengths emitted at 510 nm.

[5] = thapsigargin-stimulated current, data not shown
[6] = thapsigargin in 100 nM [Ca2+]o, then readdition of 2 mM [Ca2+]o

`O=C(O)c1ccccc1Nc1ccccc1` [N-phenylanthranilic acid] was tested, and the “effect on inward current at negative voltages” value [1, 5] was “little effect” and the “effect on outward current at positive voltages” value [1, 5] was “strongly attenuated”.

For `C/C=C(/C)C(=O)O[C@H]1C(C)=C2[C@H]([C@@H]1OC(=O)CCCCCCC)[C@@](C)(OC(C)=O)C[C@H](OC(=O)CCC)[C@@]1(O)[C@H]2OC(=O)[C@@]1(C)O` [Thapsigargin, thapsigargin], the “endothelial cell shape / intercellular gaps” value ([2]; thapsigargin 1 μM, 5 min, 100 nM [Ca2+]o) was “little change in morphology and a lack of interendothelial gaps”, the “endothelial cell shape / intercellular gaps” value ([2]; thapsigargin 1 μM, 5 min, 2 mM [Ca2+]o) was “endothelial cell retraction and intercellular gap formation” and the “endothelial cell shape / intercellular gaps” value [2, 6] was “pronounced cell retraction and gap formation”. For the same compound, the F-actin arrangement ([3]; thapsigargin in low [Ca2+]o, then readdition of 2 mM [Ca2+]o) was “appearance of dense, transcellular fibers and a decrease in peripheral F-actin staining”, the F-actin arrangement ([3]; thapsigargin, 2 mM [Ca2+]o) was “a decrease in peripheral F-actin density and an increase in the number and/or density of central transcellular F-actin filaments” and the F-actin arrangement ([3]; thapsigargin, low (100 nM) [Ca2+]o, compared with low [Ca2+]o alone) was “only modest changes in F-actin arrangements”. For the same compound, the “[Ca2+]i response (fura 2 340/380 fluorescence ratio)” value ([4]; thapsigargin 1 μM, 2 mM [Ca2+]o) was “gradual increase in [Ca^2+]i to a peak level followed by a modest decline”, the “[Ca2+]i response after readdition of [Ca2+]o” value [4, 6] was “immediate increase in [Ca^2+]i” and the “peak and sustained plateau phases of [Ca2+]i response” value ([4]; thapsigargin, 100 nM [Ca2+]o) was “significantly attenuated”. For the same compound, the “net inward current stimulated” value ([1]; 1 μM thapsigargin in pipette, at −80 mV) was 5.45±0.90 pA/pF, the slope conductance ([1]; 1 μM thapsigargin in pipette, calculated from −100 to −20 mV without respect to cell capacitance) was 1.64 nS and the “effect on I-V curve” value ([1]; 1 μM thapsigargin in pipette, whole cell, 3-5 min) was “right shifted the I-V curve and increased the current magnitude”.
